Source: patent US20050130938A1, “Method for alleviating syndromes and conditions of discomfort of the mammalian intestinal and genito-urinary tracts” (AkPharma Inc., priority 2001, published 2005)

Assays:
[1] = system: Food-Sensitive Interstitial Cystitis Patients; details: cited from earlier work
[2] = cited from earlier work
[3] = system: Interstitial Cystitis Symptoms; details: key exacerbant foods and beverages; cited from earlier work
[4] = system: IBS-related symptoms and conditions; experiment: 'pre-study' IBS survey of patients taking CGP tablets for 28 days; format: in vivo, human
Source text: A ‘pre-study’ IBS survey was taken in a large private gastroenterology practice in southern New Jersey. Each of the patients in the survey consumed a series of 2-tablet doses of CGP, in which each tablet contained 0.335 grams CGP so that each dosage was 0.67 gram of CGP. Two tablets were consumed at breakfast, lunch, and dinner, regardless of the acidity of the foods consumed at the meals, and two additional tablets were consumed with any snack eaten during the day, regardless of the acidity of the snack. The total consumption by each patient varied from 8-10 tablets per day up to 20 tablets per day.
The survey included twelve patients, eight of whom completed graphs of their 28-day experience with CGP. The experiences of the four remaining patients were written up by the medical supervisor based on oral reports. […] The patients marked daily, in 10% increments and 10% decrements, whether they felt up to 100% better or down to 100% worse as a result of the treatment.

[5] = system: Interstitial Cystitis; details: ICSG members; cited from earlier work
[6] = system: astrocytes and neurons; details: culture; cited from earlier work
[7] = system: intestinal musculature; details: some cases; product withdrawn December 2000; cited from earlier work
[8] = system: excised animal uterus tissue; details: cited from earlier work; for action on the uterus: in vitro, excised animal uterus tissue

O=P([O-])([O-])OCC(O)CO.[Ca+2] (stereo not drawn) [CGP, 1,2,3-propanetriol, mono(dihydrogen phosphate) calcium salt (1:1)]
pain as a result of consuming CGP ([1]; decreased from 76.7%): 41%
urinary urgency as a result of consuming CGP ([1]; decreased from 79.5%): 51%
dissociation of calcium from the anion ([2]; regardless of the pH level in the stomach): instantly dissociated
patients reported a reduction in [urinary] urgency [3]: 61.3%
patients reported a reduction in pain and discomfort [3]: 70.4%
oral reports to the medical supervisor ([4]; patients without graphs, one of four discontinued): helpful and effective at relieving symptoms and/or pain
effect on pain and/or symptoms in two of the eight patients who completed graphs (flatliners) ([4]; self-rated daily graph): no effect
results of the remaining six patients who completed graphs ([4]; self-rated daily graph, some going to 100% improvement and maintaining that level): good to remarkable
drop on the self-rated scale on the day without CGP ([4]; single patients, one value each): 10-20% and “50% better” to “50% worse” and “100% better” to “40% worse.”
condition on the one day on which CGP was not ingested ([4]; three patients, returned to improved state upon resuming treatment): marked condition deterioration
patients showed major improvements in IBS-related symptoms and conditions ([4]; twelve patients, oral 0.67 gram per dose with meals and snacks, 28 days): 75%
participants enabled to tolerate a wider variety of foods of an acidic nature [5]: 81%
participants found it to be beneficial [5]: 69%
effect on astrocytes in vitro [6]: enhance the proliferation and differentiation of astrocytes
effect on neurons compared with calcium chloride and non-reagent added media [6]: significant survival effects

Cc1[nH]cnc1CN1CCc2c(c3ccccc3n2C)C1=O [Lotronex]
adverse events in use [7]: intestinal ischemic collapse

O=C([O-])[O-].[Ca+2] [calcium carbonate, reference compound]
time after ingestion until calcium is released ([2]; estimated, only in an acidic milieu): 20 to 30 min

O=P([O-])([O-])OCC(O)CO.[Mg+2] (stereo not drawn) [magnesium glycerophosphate]
anti-spasmodic behavior on the intestine [8]: exclude the intestine
action on the uterus [8]: uterine anti-spasmodic agents

O=P([O-])([O-])OC(CO)CO.[Na+].[Na+] [sodium glycerophosphate, Sodium Beta-Glycerophosphate]
anti-spasmodic behavior on the intestine [8]: exclude the intestine
action on the uterus [8]: uterine anti-spasmodic agents
